Measured values published in ChEMBL document CHEMBL1759914, “The solvolysis of topotecan in alcohols and acetic anhydride” (Bioorg Med Chem Lett, 2011).

Tests used:
KB = assay: Antitumor activity against human KB cells by WST-1 assay; format: functional, cell-based
HepG2 = assay: Antitumor activity against human HepG2 cells by WST-1 assay; format: functional, cell-based
[1] = Antitumor activity against mouse C26 cells by WST-1 assay; format: functional, cell-based
[2] = Ratio of compound IC50 to 10-hydroxycamptothecin IC50 for mouse C26 cells; format: functional

Row | Compound | IC50 (KB) [nM] | IC50 (HepG2) [nM] | IC50 [1] [nM] | Ratio IC50 [2]
1 | CC[C@@]1(OC(C)=O)C(=O)OCc2c1cc1n(c2=O)Cc2cc3c(COC(C)=O)c(OC(C)=O)ccc3nc2-1 | 1150 | 1310 | 424 | 
2 | CC[C@@]1(O)C(=O)OCc2c1cc1n(c2=O)Cc2cc3c(COC)c(O)ccc3nc2-1 | 25400 | 92100 | 101000 | 
3 | CCOCc1c(O)ccc2nc3c(cc12)Cn1c-3cc2c(c1=O)COC(=O)[C@]2(O)CC | 19700 | 3910 | 29100 | 
4 | CC[C@@]1(O)C(=O)OCc2c1cc1n(c2=O)Cc2cc3c(COC(C)(C)C)c(O)ccc3nc2-1 | 1380 | 802 | 273 | 
5 | CC[C@@]1(O)C(=O)OCc2c1cc1n(c2=O)Cc2cc3c(COC(C)=O)c(OC(C)=O)ccc3nc2-1 | 794 | 1000 | 157 | 3
6 | CC[C@@]1(O)C(=O)OCc2c1cc1n(c2=O)Cc2cc3c(COC(C)C)c(O)ccc3nc2-1 | 7250 | 13500 | 3880 | 
7 | CC[C@@]1(O)C(=O)OCc2c1cc1n(c2=O)Cc2cc3cc(O)ccc3nc2-1 [HYDROXYCAMPTOTHECIN] | 829 | 981 | 496 | 
